Efficacy data for four compounds are collected here from ChEMBL document CHEMBL3352733, “Liver x receptor agonists for the treatment of coronary heart disease and other disorders” (ACS Med Chem Lett, 2014).

Each structure is given as a SMILES string.

The assay addresses T1, Oxysterols receptor LXR-beta (Homo sapiens) (UniProt P55055).
T1 sequence (whole entry): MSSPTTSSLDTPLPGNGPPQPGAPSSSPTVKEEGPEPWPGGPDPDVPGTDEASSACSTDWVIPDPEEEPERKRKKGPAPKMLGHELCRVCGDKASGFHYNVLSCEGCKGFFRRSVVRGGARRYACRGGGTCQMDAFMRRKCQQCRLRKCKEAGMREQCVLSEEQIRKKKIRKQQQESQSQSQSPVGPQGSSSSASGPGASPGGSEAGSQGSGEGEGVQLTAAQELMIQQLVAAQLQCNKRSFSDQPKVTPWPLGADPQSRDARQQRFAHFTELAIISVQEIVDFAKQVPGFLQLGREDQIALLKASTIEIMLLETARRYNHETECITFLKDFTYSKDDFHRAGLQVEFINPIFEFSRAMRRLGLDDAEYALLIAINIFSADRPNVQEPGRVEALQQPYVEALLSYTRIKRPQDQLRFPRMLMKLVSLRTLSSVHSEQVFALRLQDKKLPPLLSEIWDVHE
In words: Agonist activity at human LXRbeta expressed in CV1 cells after 20 hrs by luciferase reporter co-transfection assay relative to control. Type of assay: cell-based. Particulars: CV-1. Background: Reporter assays use an easily measured gene product as a stand-in for the process of interest.

As for `Cc1nc(C(F)(F)F)c(Cl)n1-c1ccc(-c2cc(F)c(CO)c(S(C)(=O)=O)c2)cc1-n1nncc1-c1ccc(OC(F)(F)F)cc1`, the Efficacy was 116%. Regarding `Cc1nc(C(F)(F)F)cn1-c1ccc(-c2cccc(S(C)(=O)=O)c2)cc1-n1nncc1Cc1cccc(Cl)c1`, the Efficacy turned out to be 100%. `Cc1nc(C(F)(F)F)cn1-c1ccc(-c2cc(F)c(CO)c(S(C)(=O)=O)c2)cc1-c1nc(C(C)C)oc1-c1ccc(OC(F)(F)F)cc1`: the Efficacy worked out at 75%. Compound `Cc1nc(C(F)(F)F)cn1-c1c(F)cc(-c2cccc(S(C)(=O)=O)c2)cc1-n1nncc1-c1ccc(Cl)cc1` gave an Efficacy of 85%.
